In publication PMC12371494, “Discovery of YTHDF2 Ligands by Fragment-Based Design” (ACS Bio & Med Chem Au, 2025):
Values joined by “and” are separate entries in the source; they are usually repeats but may differ in a detail not shown here. Identical values can stand only once. Like-named read-outs stand apart in the source and are kept apart here.

Key:
GST-YTHDF1 = molecular target: T1, GST-YTHDF1 (Homo sapiens, UniProt Q9BYJ9); assay: HTRF-based binding assay, DF1; conditions: HTRF, 100 µM compound, normalized
T1 construct: made in house
T1 sequence (Q9BYJ9 1-559): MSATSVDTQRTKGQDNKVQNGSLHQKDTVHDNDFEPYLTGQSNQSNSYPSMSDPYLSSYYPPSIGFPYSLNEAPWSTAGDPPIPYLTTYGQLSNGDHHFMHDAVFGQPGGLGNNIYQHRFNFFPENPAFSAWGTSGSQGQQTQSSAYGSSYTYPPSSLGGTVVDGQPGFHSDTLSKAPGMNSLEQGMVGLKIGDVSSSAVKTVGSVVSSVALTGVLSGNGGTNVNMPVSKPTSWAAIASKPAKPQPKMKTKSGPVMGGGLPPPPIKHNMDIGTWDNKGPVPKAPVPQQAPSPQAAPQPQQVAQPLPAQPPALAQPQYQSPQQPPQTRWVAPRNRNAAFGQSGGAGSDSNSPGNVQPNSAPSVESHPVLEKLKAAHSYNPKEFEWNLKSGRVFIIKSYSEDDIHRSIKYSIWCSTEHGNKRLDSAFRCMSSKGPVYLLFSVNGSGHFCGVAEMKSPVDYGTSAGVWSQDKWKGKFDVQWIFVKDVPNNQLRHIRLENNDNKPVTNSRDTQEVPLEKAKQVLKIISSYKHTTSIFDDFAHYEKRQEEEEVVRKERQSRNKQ
Protocol: (§1) The HTRF-based assay was employed to evaluate the selectivity of the series against other DF proteins.
(§2) A dose–response experiment on DF1 and DF3 was conducted for compounds 17, 18, 23, and 27 (Figure S5). Compounds 17, 18, and 27 are active on three DF proteins. […] In contrast, compound 23 is selective for DF2, with residual signals (at the highest employed concentration of 62.5 μM) of 51 and 87% for DF1 and DF3, respectively.
(§3) GST-YTHDC1, GST-YTHDF1, GST-YTHDF2, and GST-YTHDF3 were purified as previously reported. The HTRF assay was assembled as detailed in ref with the only difference being that the starting concentration of the dose–response experiments used for the IC50 determination was variated dependently from the tested compound. The same protocol was applied to the four proteins. The competitive inhibition data of GST-YTHDF1 (single dose experiment at 100 μM compound concentration and dose–response curves), GST-YTHDF3 (single dose experiment at 100 μM compound concentration and dose–response curves), and GST-YTHDF2 (single dose experiment at 100 μM compound concentration) were normalized as described in ref to mitigate interference. The signal was measured as described in ref .

GST-YTHDF2 [1] = molecular target: T2, GST-YTHDF2 (Homo sapiens, UniProt Q9Y5A9); assay: HTRF-based binding assay, competition with m6A-oligoRNA, DF2; conditions: for Single-dose residual signal at 100 µM, DF2: 100 µM compound, normalized; for IC50: dose-response, competitor m6A-oligoRNA, read-out: DF2 IC50 (HTRF assay); for LE (ligand efficiency, DF2): LE = -RT ln IC50/HAC from HTRF IC50
T2 construct: made in house
T2 sequence (Q9Y5A9 1-579): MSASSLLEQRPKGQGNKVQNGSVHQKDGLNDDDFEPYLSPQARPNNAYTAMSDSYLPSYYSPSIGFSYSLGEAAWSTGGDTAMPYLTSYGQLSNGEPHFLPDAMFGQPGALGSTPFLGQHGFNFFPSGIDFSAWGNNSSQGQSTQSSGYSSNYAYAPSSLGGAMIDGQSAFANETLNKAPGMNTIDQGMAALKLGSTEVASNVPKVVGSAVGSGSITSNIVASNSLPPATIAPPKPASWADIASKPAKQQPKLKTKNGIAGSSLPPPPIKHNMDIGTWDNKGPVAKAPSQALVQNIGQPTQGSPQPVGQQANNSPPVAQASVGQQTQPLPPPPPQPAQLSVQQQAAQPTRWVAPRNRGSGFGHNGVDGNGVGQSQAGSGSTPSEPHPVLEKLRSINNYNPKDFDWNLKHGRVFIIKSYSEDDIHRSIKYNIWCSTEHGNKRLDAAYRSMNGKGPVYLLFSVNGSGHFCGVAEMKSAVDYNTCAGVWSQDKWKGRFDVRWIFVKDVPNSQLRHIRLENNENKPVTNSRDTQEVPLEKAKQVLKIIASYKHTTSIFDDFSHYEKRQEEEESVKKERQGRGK

GST-YTHDF3 = molecular target: T3, GST-YTHDF3 (Homo sapiens, UniProt Q7Z739); assay: HTRF-based binding assay, DF3; conditions: HTRF, 100 µM compound, normalized
T3 construct: made in house
T3 sequence (Q7Z739 1-585): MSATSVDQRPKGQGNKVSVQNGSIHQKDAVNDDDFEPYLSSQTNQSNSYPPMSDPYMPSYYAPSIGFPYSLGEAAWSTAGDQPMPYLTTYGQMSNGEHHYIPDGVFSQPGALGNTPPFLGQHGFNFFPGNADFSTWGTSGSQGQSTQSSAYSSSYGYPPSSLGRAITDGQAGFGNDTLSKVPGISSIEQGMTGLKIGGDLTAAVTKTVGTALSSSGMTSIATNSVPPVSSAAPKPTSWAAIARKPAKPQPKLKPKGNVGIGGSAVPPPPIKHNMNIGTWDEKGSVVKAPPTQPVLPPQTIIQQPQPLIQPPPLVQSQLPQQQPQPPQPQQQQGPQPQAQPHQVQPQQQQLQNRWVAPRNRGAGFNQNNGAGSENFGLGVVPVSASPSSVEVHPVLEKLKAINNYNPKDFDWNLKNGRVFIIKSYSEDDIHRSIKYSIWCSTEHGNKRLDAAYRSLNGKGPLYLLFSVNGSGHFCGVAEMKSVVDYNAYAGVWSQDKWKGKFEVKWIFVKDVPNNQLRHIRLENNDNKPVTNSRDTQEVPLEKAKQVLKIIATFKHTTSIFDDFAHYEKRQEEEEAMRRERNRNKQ
Protocol: as §1, §2, §3

YTHDC2 = molecular target: T4, YTHDC2 (Homo sapiens, UniProt Q9H6S0); assay: DNA-fluorescence polarization (FP) competition assay, DC2; assay type: binding; conditions: for Kd: Cheng-Prusoff from FP IC50, probe Kd 7 nM, two biological replicates
T4 construct: YTH domain of YTHDC2 (residues 1285–1424, cloned into the pGEX-6P-1 vector); made in house; host or cells: Rosetta (DE3) cells (E. coli)
T4 sequence (Q9H6S0 1285-1424): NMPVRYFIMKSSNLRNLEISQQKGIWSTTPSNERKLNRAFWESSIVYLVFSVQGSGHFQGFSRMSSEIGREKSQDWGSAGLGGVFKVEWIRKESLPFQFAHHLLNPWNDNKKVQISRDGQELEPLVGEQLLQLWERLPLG
Protocol: (§4) The binding affinity for DC1 could not be evaluated by HTRF because of interference of the compounds with the assay, which has a smaller assay window when performed with DC1 compared to the DF proteins. Thus, the FP assay was used to evaluate binding to DC1 and DC2.
The N-terminally GST-tagged YTH domain of YTHDC2 (residues 1285–1424, cloned into the pGEX-6P-1 vector) was overexpressed in Rosetta (DE3) cells grown overnight at 20 °C following induction with 0.4 mM isopropyl-β-D-thiogalactopyranoside (IPTG) at an OD600 of 0.8. The cells were harvested and resuspended in a lysis buffer containing 100 mM Tris–HCl (pH 8.0) and 500 mM NaCl. After cell lysis, the lysate was clarified by centrifugation at 48,000g for 1 h, and the soluble proteins were loaded onto a column packed with Glutathione Sepharose 4B (GE Healthcare), then eluted with 20 mM reduced glutathione in lysis buffer. Finally, a size-exclusion chromatography step (HiLoad 16/600 Superdex 200 pg column, GE Healthcare) was performed to further purify the protein in 20 mM Tris–HCl (pH 7.4) and 150 mM NaCl.
(§5) For fluorescence polarization (FP) experiments, a 5′-fluorescein-labeled m^6A-DNA probe (5′-FAM-[…](m6A)-CTAAGCT-3′) was synthesized by Microsynth AG.
(§6) The final concentration of the fluorescein-labeled DNA was kept constant at 3 nM. For YTHDC2 measurements, the protein concentration was set to 25 nM, while for YTHDF2 measurements, it was set to 10 nM, and for YTHDC1, it was set at 15 nM. The compound concentration was serially diluted to obtain the dose–response curve. The competition experiments were conducted in a final volume of 20 μL in a buffer containing 20 mM Tris–HCl (pH 7.4), 150 mM NaCl, and 0.01% bovine serum albumin (BSA), using a 384-well black flat-bottomed microplate (Corning 3575).
(§7) After incubating the mixture for 1 h, the anisotropy values were measured using a Tecan SPARK plate reader with 485/20 nm excitation and 535/25 nm emission polarization filters, suitable for fluorescein, at 25 °C. To obtain the equilibrium dissociation constant (K d), the IC50 values were first derived by fitting a dose–response curve to the data using nonlinear regression analysis in GraphPad Prism. These IC50 values were then converted to K d by using the Cheng–Prusoff equation: Kd=IC50/1+[L]/Kdprobe
(§8) IC50 is the observed value from FP assay, [L] is the probe concentration used, and K d ^probe is the binding affinity of probe for the target.

YTHDF2 = molecular target: T5, YTHDF2 (Homo sapiens, UniProt Q9Y5A9); assay: DNA-fluorescence polarization (FP) competition assay, DF2; assay type: binding
T5 sequence (Q9Y5A9 1-579): T2 sequence (Q9Y5A9 1-579)
Protocol: An FP competition assay was used to further validate the binding of the compounds to DF2. The main difference with respect to a previously published FP assay is the use of an oligo-DNA as competitor ligand (see Materials and Methods section). […] These differences might originate from the varying conditions in the two assays, such as the competitor mRNA (5′-biotin-[…](m6A)-CUAAGCU-3′) in HTRF and DNA (5′-FAM-[…](m6A)-CTAAGCT-3′) in FP, the salt concentration (150 mM NaCl and 100 mM KF in HTRF, and 150 mM NaCl in FP), and the pH (7.5 in HTRF and 7.4 in FP). The FP-based assay was also employed to assess the selectivity against DC1 and DC2 (see Selectivity section).
as §5, §6, §7, §8

YTHDC1 = YTHDC1 (Homo sapiens, UniProt Q96MU7); assay: DNA-fluorescence polarization (FP) competition assay, DC1; assay type: binding
Protocol: as §4, §5, §6, §7, §8

GST-YTHDF2 [2] = molecular target: T2, GST-YTHDF2; conditions: HTRF, 1 mM compound; cited from earlier work
[3] = Cheng-Prusoff from FP IC50, probe Kd 5 nM, two biological replicates

| Single-dose residual signal at 100 µM, DF1 (GST-YTHDF1) | Single-dose residual signal at 100 µM, DF2 (GST-YTHDF2 [1]; HTRF) | IC50 (GST-YTHDF2 [1]) | Single-dose residual signal at 100 µM, DF3 (GST-YTHDF3) | Kd (YTHDC2) | SMILES | other results |
| --- | --- | --- | --- | --- | --- | --- |
| 17% | 8% | 38 µM | 22% | > 1000 µM | Cc1cc2c(=O)[nH]c(=S)[nH]c2s1 [Compound S78] |  |
| 17% | 9% | 25 µM | 40% | > 1000 µM | Cc1c(C(=O)NCCCCO)sc2[nH]c(=S)[nH]c(=O)c12 [Compound S83] |  |
|  |  | 29 µM |  | 100 µM | O=C(O)c1ccc(Cc2cc3c(=O)[nH]c(=S)[nH]c3s2)cc1 [Compound S87] | Kd (YTHDF2; [3]): 18 µM |
| 31% | 9% | 27 µM | 30% | > 1000 µM | Cc1c(C(C)O)sc2[nH]c(=S)[nH]c(=O)c12 (racemic) [Compound S79] |  |
|  |  |  |  | 210 µM | CCOC(=O)c1ccc(Cc2cc3c(=O)[nH]c(=S)[nH]c3s2)cc1 [Compound S86] | % at 125 μM (printed in IC50 column, IC50 could not be determined) (GST-YTHDF2 [1]; HTRF, 125 μM compound): 63% |
|  |  | 94 µM |  | > 1000 µM | O=c1[nH]c(=S)[nH]c2scc(-c3ccccc3)c12 [Compound S74] |  |
| 15% | 9% | 32 µM | 29% |  | Cc1c(C(=O)O)sc2[nH]c(=S)[nH]c(=O)c12 [Compound S80] |  |
|  |  | 28 µM |  | 120 µM | Cc1csc2[nH]c(=S)[nH]c(=O)c12 [Compound S88] | Kd (YTHDF2; [3]): 8.1 µM |

Further lines, the molecule ahead of its results:

| SMILES | Single-dose residual signal at 100 µM, DF1 (GST-YTHDF1) | Single-dose residual signal at 100 µM, DF2 (GST-YTHDF2 [1]; HTRF) | IC50 (GST-YTHDF2 [1]) | Single-dose residual signal at 100 µM, DF3 (GST-YTHDF3) | Kd (YTHDC2) | other results |
| --- | --- | --- | --- | --- | --- | --- |
| O=C(O)c1ccc(-c2cc3c(=O)[nH]c(=S)[nH]c3s2)cc1 [Compound 30] |  |  |  |  | 5 µM and 4.9 µM | Kd (YTHDF2): 1.9 µM; Kd (YTHDC1): 7.5 µM |
| CNc1ncnc2[nH]cnc12 [m^6-Adenine] |  |  |  |  |  | Residual signal at 1 mM concentration (GST-YTHDF2 [2]): 75 (Ref. ^13) % |
| COc1ccc(-c2cc3c(=O)[nH]c(=S)[nH]c3s2)cc1 [Compound 28] |  |  | 22 µM |  | 9.1 µM | LE (ligand efficiency, DF2) (GST-YTHDF2 [1]): 0.34 kcal/(mol HAC); Kd (YTHDF2): 1.9 µM; Kd (YTHDC1): 9.4 µM |
| CCOC(=O)c1ccc(-c2cc3c(=O)[nH]c(=S)[nH]c3s2)cc1 [Compound 29] |  |  | 21 µM |  | 8.4 µM | LE (ligand efficiency, DF2) (GST-YTHDF2 [1]): 0.29 kcal/(mol HAC); Selectivity DF2 over DC2 (Kd ratio DC2/DF2) (YTHDC2; FP Kd values): 2–4 fold; Kd (YTHDF2): 3.1 µM; Kd (YTHDC1): 5 µM; Selectivity DF2 over DC1 (Kd ratio DC1/DF2) (YTHDC1; FP Kd values): 2–4 fold |
